Assay results reported in PubChem BioAssay AID1259407 (Chemical Carcinogenesis Research Information System (CCRIS), 2018).
Calls of active or inactive are those of the source. The rule behind the calls is not given here.

Test system: CCRIS mutagenicity, Ames/micronucleus/aberration tests
Experiment: CCRIS mutagenicity studies
[1] = Test System: Ames Salmonella typhimurium, Strain/Indicator: TA98, Metabolic Activation: None, Method: Preincubation
[2] = Test System: Ames Salmonella typhimurium, Strain/Indicator: TA100, Metabolic Activation: None, Method: Preincubation
[3] = Test System: Ames Salmonella typhimurium, Strain/Indicator: TA1535, Metabolic Activation: None, Method: Preincubation

Measured: mutagenic call

C=CC(=C)CCC=C(C)C
inactive: End Point: E. coli, Strain/Indicator: WP2uvrA/pKM101, Metabolic Activation: None, Method: Preincubation inactive; negative | End Point: E. coli, Strain/Indicator: WP2uvrA/pKM101, Metabolic Activation: Rat, Liver, S-9, Aroclor 1254 (10%), Method: Preincubation inactive; negative | End Point: In vivo micronucleus, Test System: Micronucleated normochromatic erythrocytes, Species: Mouse, Strain/Sex: B6C3F1 / Female, Route: Oral inactive; negative | End Point: In vivo micronucleus, Test System: Micronucleated normochromatic erythrocytes, Species: Mouse, Strain/Sex: B6C3F1 / Male, Route: Oral inactive; negative | Test System: AMES SALMONELLA TYPHIMURIUM, Strain/Indicator: TA97A, Metabolic Activation: NONE, Method: STANDARD PLATE inactive; negative | Test System: AMES SALMONELLA TYPHIMURIUM, Strain/Indicator: TA97A, Metabolic Activation: RAT, LIVER, S-9, AROCLOR 1254, Method: STANDARD PLATE inactive; negative | Test System: AMES SALMONELLA TYPHIMURIUM, Strain/Indicator: TA98, Metabolic Activation: NONE, Method: STANDARD PLATE inactive; negative | Test System: AMES SALMONELLA TYPHIMURIUM, Strain/Indicator: TA98, Metabolic Activation: RAT, LIVER, S-9, AROCLOR 1254, Method: STANDARD PLATE inactive; negative | Test System: AMES SALMONELLA TYPHIMURIUM, Strain/Indicator: TA100, Metabolic Activation: NONE, Method: STANDARD PLATE inactive; negative | Test System: AMES SALMONELLA TYPHIMURIUM, Strain/Indicator: TA100, Metabolic Activation: RAT, LIVER, S-9, AROCLOR 1254, Method: STANDARD PLATE inactive; negative | Test System: AMES SALMONELLA TYPHIMURIUM, Strain/Indicator: TA1535, Metabolic Activation: NONE, Method: STANDARD PLATE inactive; negative | Test System: AMES SALMONELLA TYPHIMURIUM, Strain/Indicator: TA1535, Metabolic Activation: RAT, LIVER, S-9, AROCLOR 1254, Method: STANDARD PLATE inactive; negative | Test System: Ames Salmonella typhimurium, Strain/Indicator: TA97, Metabolic Activation: Hamster, Liver, S-9, Aroclor 1254 (10%), Method: Preincubation inactive; negative | Test System: Ames Salmonella typhimurium, Strain/Indicator: TA97, Metabolic Activation: Hamster, Liver, S-9, Aroclor 1254 (30%), Method: Preincubation inactive; negative | Test System: Ames Salmonella typhimurium, Strain/Indicator: TA97, Metabolic Activation: None, Method: Preincubation inactive; negative | Test System: Ames Salmonella typhimurium, Strain/Indicator: TA97, Metabolic Activation: Rat, Liver, S-9, Aroclor 1254 (10%), Method: Preincubation inactive; negative | Test System: Ames Salmonella typhimurium, Strain/Indicator: TA97, Metabolic Activation: Rat, Liver, S-9, Aroclor 1254 (30%), Method: Preincubation inactive; negative | Test System: Ames Salmonella typhimurium, Strain/Indicator: TA98, Metabolic Activation: Hamster, Liver, S-9, Aroclor 1254 (10%), Method: Preincubation inactive; negative | Test System: Ames Salmonella typhimurium, Strain/Indicator: TA98, Metabolic Activation: Hamster, Liver, S-9, Aroclor 1254 (30%), Method: Preincubation inactive; negative | [1] inactive; negative | Test System: Ames Salmonella typhimurium, Strain/Indicator: TA98, Metabolic Activation: Rat, Liver, S-9, Aroclor 1254 (10%), Method: Preincubation inactive; negative | Test System: Ames Salmonella typhimurium, Strain/Indicator: TA98, Metabolic Activation: Rat, Liver, S-9, Aroclor 1254 (30%), Method: Preincubation inactive; negative | Test System: Ames Salmonella typhimurium, Strain/Indicator: TA100, Metabolic Activation: Hamster, Liver, S-9, Aroclor 1254 (10%), Method: Preincubation inactive; negative | Test System: Ames Salmonella typhimurium, Strain/Indicator: TA100, Metabolic Activation: Hamster, Liver, S-9, Aroclor 1254 (30%), Method: Preincubation inactive; negative | [2] inactive; negative | Test System: Ames Salmonella typhimurium, Strain/Indicator: TA100, Metabolic Activation: Rat, Liver, S-9, Aroclor 1254 (10%), Method: Preincubation inactive; negative | Test System: Ames Salmonella typhimurium, Strain/Indicator: TA100, Metabolic Activation: Rat, Liver, S-9, Aroclor 1254 (30%), Method: Preincubation inactive; negative | Test System: Ames Salmonella typhimurium, Strain/Indicator: TA1535, Metabolic Activation: Hamster, Liver, S-9, Aroclor 1254 (10%), Method: Preincubation inactive; negative | Test System: Ames Salmonella typhimurium, Strain/Indicator: TA1535, Metabolic Activation: Hamster, Liver, S-9, Aroclor 1254 (30%), Method: Preincubation inactive; negative | [3] inactive; negative | Test System: Ames Salmonella typhimurium, Strain/Indicator: TA1535, Metabolic Activation: Rat, Liver, S-9, Aroclor 1254 (10%), Method: Preincubation inactive; negative | Test System: Ames Salmonella typhimurium, Strain/Indicator: TA1535, Metabolic Activation: Rat, Liver, S-9, Aroclor 1254 (30%), Method: Preincubation inactive; negative | Test System: CHINESE HAMSTER V-79, Strain/Indicator: V-79/6-THIOGUANINE (HGPRT), Metabolic Activation: NONE, Method: PREINCUBATION inactive; negative | Test System: CHINESE HAMSTER V-79, Strain/Indicator: V-79/6-THIOGUANINE (HGPRT), Metabolic Activation: RAT, LIVER, S-9, Method: PREINCUBATION inactive; negative | Test System: E. coli, Strain/Indicator: WP2 IC185 trpE65, Metabolic Activation: None, Method: Plate incorporation (Test material solvent: ethanol) inactive; negative | Test System: E. coli, Strain/Indicator: WP2 IC202 trpE65 oxyR/pKM101, Metabolic Activation: None, Method: Plate incorporation (Test material solvent: ethanol) inactive; negative

CCN(CC)c1ccc(/C=C/C2=[N+](C)c3ccccc3C2(C)C)cc1
inactive: [1] inactive; negative | Test System: Ames Salmonella typhimurium, Strain/Indicator: TA98, Metabolic Activation: Rat, Liver, S-9, Aroclor 1254, Method: Preincubation inactive; negative | [2] inactive; negative | Test System: Ames Salmonella typhimurium, Strain/Indicator: TA100, Metabolic Activation: Rat, Liver, S-9, Aroclor 1254, Method: Preincubation inactive; negative | Test System: Ames Salmonella typhimurium, Strain/Indicator: TA102, Metabolic Activation: None, Method: Preincubation inactive; negative | Test System: Ames Salmonella typhimurium, Strain/Indicator: TA102, Metabolic Activation: Rat, Liver, S-9, Aroclor 1254, Method: Preincubation inactive; negative | [3] inactive; negative | Test System: Ames Salmonella typhimurium, Strain/Indicator: TA1535, Metabolic Activation: Rat, Liver, S-9, Aroclor 1254, Method: Preincubation inactive; negative
